The values that follow come from patent publication US20050064382A1, “Method of prevention of lysosomal leakage in eukaryotic cells by using 6-methyluracil based water-soluble compounds and method of producing thereof” (priority 2002, published 2005).

For experiment [1], the system named is rat thyroid-derived cell line FRTL-5. In words: Storage of FRTL-5 cells at low temperature, viability by well bottom coverage. It is filed as cell-based. The procedure:
The goal of the study was to assess the influence of Glucural on cell recovery of different mammalian cells suspended in various cryo-protectors. A single layer of the rat thyroid-derived cell line FRTL-5 was grown in VPF-12 medium containing 10% calf serum (C.S.) in Petri dishes (10 cm) stored in an environment of 5% CO2, 100% humidity and at 37° C. Cell coverage on the Petri dish bottom reached 80-90% over 6-8 days. A single-layer cell culture of the cell line from the anterior lobe of the pituitary gland (corticotrophs) of ATT-20 was grown in similar fashion but in D-MEM medium containing 10% C.S.
After exposure, cell suspensions were melted quickly in aliquots with cell suspension equal to 0.2 or 0.4 ml per well. The growing period varied depending on conditions of cell storage. All trials were performed in duplicate. Cell viability was estimated by the percentage of the well bottom covered by cells.
The same method was used here as in tests with MEL cells. Cryo-protectors used were not optimal for FRTL-5 and ATT-20 cells. Conditions of freezing were not optimal in assays # 1, 5 and 6.

The subject of a further experiment is THP-1 cells. Description: Longer-duration growth of THP-1 cells after DMSO shock and starvation, live cells. In kind it is cell-based, human. Here is the method:
Growth was measured after the administration of “DMSO Shock” and without a change of medium. […] Trypan-blue test was used: the number of live cells per 0.1 ml (based on 4 counting iterations).

Experiment [2] relates to neurons from rat embryos brains. In words: Survival of rat embryo brain neurons after mechanical damage. In kind it is cell-based. As to conditions: for number of live neurons vs culture without Glucural: 500 mkg/ml. From the text:
One particularly attractive application of the cytoprotective quality of 6-methyluracil compounds is to extend the life span of primer cell cultures. Primer cell cultures are cell cultures obtained from various tissues. They are used routinely for new drug screening in pharmaceutical industry. The problem associated with many primer cell cultures is their general inability to propagate and grow, leading to their early death and therefore limiting their use in drug research. For example, a rat embryo brain neuron cell culture has about 80% mortality in 12-14 days.
The following is an example of the difficulty in maintaining the survival rate of primer cell cultures. […] The term “growing” of these primer cell cultures means maintaining their survival for a 10-15 day period. But these cell cultures are very valuable as test objects and are commonly used for the initial testing of new drugs (drug screening). Glucural was tested on the neurons from rat embryos brains that were transferred into cell cultures. The viability of these neurons was tested during 2 stages of the production of embryonic neuron cell cultures: 1) mechanical disassembly and washing, and 2) the “growing” of the cell culture.
After 7 days, this ratio increased to nearly triple as shown on FIGS. 1 and 2.

Experiment [3] relates to skeletal (rear leg) muscle homogenates. In words: Proteolytic index of muscle homogenates (autoproteolysis, Ninhidrin). It is filed as biochemical, rat. The procedure: In-vitro tests were performed on the skeletal (rear leg) muscles of 17 white laboratory rats. Preliminary research efforts determined 1) the preparation method for muscle homogenates, 2) estimation of level of the proteolytic activity by measuring for the concentration of free amino acids, a result of protein cleavage, and 3) the optimal time of authoproteolysis.
The preparation of muscle homogenates. Efforts were made to disassemble the muscle tissue gently, without disruption of the lysosomes, though with sufficient strength to ensure a homogeneous suspension of muscle cells in physiological solution (PBS). Potter's homogenator was used with a glass barrel and a Teflon pestle. Determination of the optimal treatment was based on experimental data and the activity of the proteases during the incubation of the homogenates at 37° C. If lysosomes were damaged during preparation of the homogenates, then there was no increase in concentration of free amino acids during incubation. Undamaged lysosomes in the homogenate would continue their proteolytic activity during incubation. For the best preparation of the homogenate, the muscles were separated from the connecting tissue, weighed and cut up with scissors in a Petri dish for 10 minutes. […]
After the incubation of samples, the protein concentration was estimated by the standard Bio-Rad method. To estimate proteolytic activity based on the concentration of free amino acids found in the sample, three methods were tried: 1) absorbance at 280 nm, 2) concentration of amino acid tyrosine by estimation with Folin reagent, and 3) concentration of end amino groups with Ninhidrin reagent. Only method 3 provided accurate results, so the proteolytic index was measured based on the Ninhidrin reagent. […] Samples were boiled in a water bath for 10 minutes, chilled and the absorbance at 560 nm was measured. […] Concentrations of free amino acids and protein in mg/ml could therefore be determined for both cases. The ratio of free amino acids per proteins in the sample was calculated as the proteolytic index. […]

As to “complex of 2,4-dihydroxy-6-methylpyrimidine with N-methyl-D-glucamine [Glucural]”, the “Percentage of well bottom covered by cells” value is reported as 90-100% in experiment [1] (#1 FRTL-5 (4 days), 10% Glycerol, −70° C., Glucural 100 mg/ml); 90-100% in experiment [1] (#1 FRTL-5 (4 days), 10% Glycerol, −70° C., Glucural 200 mg/ml); 10-15% in experiment [1] (#2 FRTL-5 (36 days), 10% Glycerol, −190° C., Glucural 100 mg/ml); 60-70% in experiment [1] (#3 FRTL-5 (4 days), 50% C.S., 0° C., 30 min, Glucural 100 mg/ml); 60-70% in experiment [1] (#3 FRTL-5 (4 days), 50% C.S., 0° C., 30 min, Glucural 200 mg/ml). The “optimal dose for THP-1 cells” value with THP-1 cells is given as 25 mkg/ml. Besides, the “number of live cells per 0.1 ml” value in the experiment on THP-1 cells (B Control + Glucural 25 mkg/ml, assay #1, 5 days growing) is 241 ± 24 per 0.1 ml; in the experiment on THP-1 cells (B Control + Glucural 25 mkg/ml, assay #3, 4 days growing), 136 ± 5 per 0.1 ml; in the experiment with THP-1 cells (B Control + Glucural 25 mkg/ml, assay #4, 4 days growing), 160 ± 22 per 0.1 ml; with THP-1 cells (D DMSO shock + Glucural 25 mkg/ml, assay #1, 5 days growing) it was 228 ± 48 per 0.1 ml; with THP-1 cells (D DMSO shock + Glucural 25 mkg/ml, assay #2, 6 days growing), 184 ± 19 per 0.1 ml; with THP-1 cells (D DMSO shock + Glucural 25 mkg/ml, assay #3, 4 days growing), 137 ± 6 per 0.1 ml. Further, the “number of live cells per 0.1 ml” value in the experiment with THP-1 cells (D DMSO shock + Glucural 25 mkg/ml, assay #4, 4 days growing) amounted to 222 ± 42 per 0.1 ml. Besides, the “increase of life span of rat embryo brain neuron cell culture” value in experiment [2] was “more than two fold”. Moreover, the “number of live neurons vs culture without Glucural” value in experiment [2] (after 7 days) was “nearly triple”; in experiment [2] (after one day), “more than double”. Also, the “decrease of proteolytic activity in muscles” value in experiment [3] (Glucural 50 mkg/ml (Group 4)) stood at 36%; in experiment [3] (Glucural 100 mkg/ml (Group 5)), 51%. Also, the reduction of autoproteolysis result in experiment [3] (Glucural less than 50 mkg/ml) is “not sufficient to reduce autoproteolysis”.
